Measured values: ChEMBL document CHEMBL6071154, “A patent review of SCF E3 ligases inhibitors for cancer:Structural design, pharmacological activities and structure-activity relationship” (Eur J Med Chem, 2024)
Values belong to the compound of their own block, whether it stands above or below them.

How the values were obtained:
LNCaP = assay: Antiproliferative activity against human LNCAP cells assessed as reduction in cell viability incubated for 24 hrs by MTT assay
A549 = assay: Antiproliferative activity against human A549 cells assessed as reduction in cell growth; format: functional, cell-based
HT-1080 = assay: Antiproliferative activity against human HT-1080 cells assessed as reduction in cell viability; format: functional, cell-based
[1] = Inhibition of NF-kappaB (unknown origin); design: species or system Homo sapiens
DU-145 = assay: Antiproliferative activity against human DU-145 cells assessed as reduction in cell viability incubated for 48 hrs by CCK8 assay; format: functional, cell-based; conditions: DU-145, 48 h
PC-3 = assay: Antitumor activity against human PC-3 cells xenografted in mouse assessed as tumor growth inhibition at 10 mg/kg, po administered once daily relative to control; format: functional; design: scale not given: the % may be the effect or the level left
[2] = target: S-phase kinase-associated protein 2 (Homo sapiens, UniProt Q13309); assay: Inhibition of SKP2 (unknown origin)
NCI-H2170 = assay: Antiproliferative activity against human NCI-H2170 cells assessed as reduction in cell growth incubated for 72 hrs by CCK-8 assay; format: functional, cell-based; conditions: NCI-H2170, 72 h
NCI-H358 = assay: Antiproliferative activity against human NCI-H358 cells assessed as reduction in cell growth incubated for 72 hrs by CCK-8 assay; format: functional, cell-based; conditions: NCI-H358, 72 h
HGC-27 = assay: Antiproliferative activity against human HGC-27 cells assessed as reduction in cell growth incubated for 24 hrs by CCK-8 assay; format: functional, cell-based; conditions: HGC-27, 24 h

S-phase kinase-associated protein 2, sequence (Q13309 whole entry): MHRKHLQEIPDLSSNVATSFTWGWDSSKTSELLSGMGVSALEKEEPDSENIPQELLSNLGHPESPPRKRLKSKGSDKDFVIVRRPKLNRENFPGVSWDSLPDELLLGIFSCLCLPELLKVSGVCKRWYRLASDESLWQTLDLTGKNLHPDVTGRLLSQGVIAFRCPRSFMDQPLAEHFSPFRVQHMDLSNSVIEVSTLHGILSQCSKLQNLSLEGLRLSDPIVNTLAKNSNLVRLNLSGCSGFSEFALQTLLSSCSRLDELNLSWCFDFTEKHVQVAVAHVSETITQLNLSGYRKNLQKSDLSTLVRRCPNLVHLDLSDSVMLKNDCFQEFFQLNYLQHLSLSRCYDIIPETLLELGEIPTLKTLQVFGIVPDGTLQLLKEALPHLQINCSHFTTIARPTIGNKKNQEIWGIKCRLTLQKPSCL

Structure (SMILES): COc1ccc(Oc2cc(NS(=O)(=O)c3ccc(C)cc3)c3ncccc3c2)cc1
- IC50 (A549): 4.09 µM
- IC50 (HT-1080): 0.74 µM

Structure (SMILES): Cc1ccc(S(=O)(=O)Nc2cc(Oc3cccc(C#N)c3)cc3cccnc23)cc1
- IC50 (A549): 6.48 µM
- IC50 (HT-1080): 6.83 µM

Structure (SMILES): O=C(O)c1ccc(N2N=C(Cc3ccccc3)/C(=C\c3ccc(-c4ccccc4F)o3)C2=O)cc1
- IC50 [1]: 5.2 µM

Structure (SMILES): O=C(CCl)NC1CCN(c2cnc(-c3ccccc3)c(-c3ccccc3)n2)CC1
- Activity (PC-3): 55.68%
- IC50 [2]: 2.76 µM

Structure (SMILES): CC(C)(C)c1cc2cc(NC(=O)c3cccs3)ccc2[nH]1
- IC50 (LNCaP): 4.63 µM

Structure (SMILES): O=C(Nc1cc(F)cc(F)c1)Nc1cccc(COc2ncc(Cl)cn2)c1
- IC50 (NCI-H2170): 5.6 µM
- IC50 (NCI-H358): 5.85 µM

Structure (SMILES): N#Cc1ccc(OCc2cccc(NC(=O)Nc3cc(F)cc(F)c3)c2)cc1
- IC50 (NCI-H2170): 4.12 µM
- IC50 (NCI-H358): 5.8 µM

Structure (SMILES): O=C(Nc1cc(F)cc(F)c1)Nc1cccc(CNc2ccc(Cl)cc2)c1
- IC50 (NCI-H2170): 7.31 µM
- IC50 (NCI-H358): 6.97 µM

Structure (SMILES): CCCCc1ccc(NC(C)=O)c(C)c1
- IC50 (LNCaP): 1.09 µM

Structure (SMILES): CC(Oc1ccc(C#N)cc1)c1cccc(NC(=O)Nc2cc(F)cc(F)c2)c1 (configuration not stated)
- IC50 (NCI-H2170): 4.47 µM
- IC50 (NCI-H358): 4.73 µM

Structure (SMILES): CS(=O)(=O)c1ccc(CCC(=O)Nc2ccccn2)cc1
- IC50 (LNCaP): 3.56 µM

Structure (SMILES): COc1cc(C)ccc1-c1nc(C)c(NC(=O)OCc2ccc3c(c2)nc2n3CCOC2)s1
- IC50 (HT-1080): 0.00175 µM

Structure (SMILES): CCn1nnc2cc(COC(=O)Nc3sc(-c4ccc(C)cc4OC)nc3C)ccc21
- IC50 (HT-1080): 0.00164 µM

Structure (SMILES): O=C(Nc1cc(F)cc(F)c1)Nc1cccc(COc2ccccc2Cl)c1
- IC50 (NCI-H2170): 7.93 µM
- IC50 (NCI-H358): 8.1 µM

The next lines start with results.

- IC50 (LNCaP): 1.71 µM
Structure (SMILES): O=C(OCn1ncc(Cl)c(Cl)c1=O)c1cccc(C(F)(F)F)c1

- IC50 (A549): 4.11 µM
- IC50 (HT-1080): 0.08 µM
Structure (SMILES): Cc1ccc(S(=O)(=O)Nc2cc(Oc3cc(F)cc(F)c3)cc3cccnc23)cc1

- IC50 (DU-145): 19.7 µM
Structure (SMILES): C/C=C/C(=O)c1c(OC)cc(=O)oc1C

- IC50 (NCI-H2170): 5.55 µM
- IC50 (NCI-H358): 6.4 µM
Structure (SMILES): O=C(Nc1cc(F)cc(F)c1)Nc1cccc(COc2ccc(Cl)cc2Cl)c1

- IC50 (NCI-H2170): 3.19 µM
- IC50 (NCI-H358): 7.9 µM
Structure (SMILES): O=C(Nc1cc(F)cc(F)c1)Nc1cccc(COc2ccc(Cl)cc2)c1

- IC50 (DU-145): 50 µM
Structure (SMILES): CCOc1nc2cccc(C(=O)OCc3oc(=O)oc3C)c2n1Cc1ccc(-c2ccccc2-c2noc(=O)[nH]2)cc1 [AZILSARTAN MEDOXOMIL]
- IC50 (HGC-27): 0.399 µM
